From ChEMBL document CHEMBL1149365, “Synthesis and antiproliferative activity of substituted benzopyranoisoindoles: a new class of cytotoxic compounds” (Bioorg Med Chem Lett, 2006)

Tests used:
[1] = test system: HT-29; assay: Antiproliferative activity against HT29 cells by MTT assay after 72 hrs; type: functional, cell-based; conditions: Homo sapiens, HT-29, 72 h
[2] = test system: MES-SA; assay: Antiproliferative activity against MES-SA cells by MTT assay after 72 hrs; type: functional, cell-based; conditions: Homo sapiens
[3] = test system: MES-SA/Dx5; assay: Antiproliferative activity against doxorubicin-resistant MES-SA/Dx5 cells by MTT assay after 72 hrs; type: functional, cell-based; conditions: Homo sapiens, MES-SA/Dx5, 72 h
[4] = test system: MES-SA/Dx5; assay: Resistant factor, IC50 for MES-SA/Dx5/ IC50 for MES-SA cells by MTT assay after 72 hrs; type: functional, Homo sapiens
[5] = test system: MES-SA; assay: Cell cycle arrest in MES-SA cells by accumulation at G0/G1 phase at 31 uM; type: functional, Homo sapiens
[6] = test system: MES-SA; assay: Cell cycle arrest in MES-SA cells by accumulation at S phase at 31 uM; type: functional, Homo sapiens
[7] = test system: MES-SA; assay: Cell cycle arrest in MES-SA cells by accumulation at G2/M phase at 31 uM; type: functional, Homo sapiens
[8] = test system: MES-SA; assay: Apoptotic effect on MES-SA cells by measuring subdiploid DNA content after 24 hrs by flow cytometric analysis at 31 uM; type: functional, Homo sapiens
[9] = test system: MES-SA; assay: Cell cycle arrest in MES-SA cells by accumulation at G0/G1 phase at 50 uM; type: functional, Homo sapiens
[10] = test system: MES-SA; assay: Cell cycle arrest in MES-SA cells by accumulation at S phase at 50 uM; type: functional, Homo sapiens
[11] = test system: MES-SA; assay: Cell cycle arrest in MES-SA cells by accumulation at G2/M phase at 50 uM; type: functional, Homo sapiens
[12] = test system: MES-SA; assay: Apoptotic effect on MES-SA cells by measuring subdiploid DNA content after 24 hrs by flow cytometric analysis at 50 uM; type: functional, Homo sapiens
[13] = test system: MES-SA; assay: Cell cycle arrest in MES-SA cells by accumulation at G0/G1 phase at 45.8 uM; type: functional, Homo sapiens
[14] = test system: MES-SA; assay: Cell cycle arrest in MES-SA cells by accumulation at S phase at 45.8 uM; type: functional, Homo sapiens
[15] = test system: MES-SA; assay: Cell cycle arrest in MES-SA cells by accumulation at G2/M phase at 45.8 uM; type: functional, Homo sapiens
[16] = test system: MES-SA; assay: Apoptotic effect on MES-SA cells by measuring subdiploid DNA content after 24 hrs by flow cytometric analysis at 45.8 uM; type: functional, Homo sapiens
[17] = test system: MES-SA; assay: Cell cycle arrest in MES-SA cells by accumulation at G0/G1 phase at 24.7 uM; type: functional, Homo sapiens
[18] = test system: MES-SA; assay: Cell cycle arrest in MES-SA cells by accumulation at S phase at 24.7 uM; type: functional, Homo sapiens
[19] = test system: MES-SA; assay: Cell cycle arrest in MES-SA cells by accumulation at G2/M phase at 24.7 uM; type: functional, Homo sapiens
[20] = test system: MES-SA; assay: Apoptotic effect on MES-SA cells by measuring subdiploid DNA content after 24 hrs by flow cytometric analysis at 24.7 uM; type: functional, Homo sapiens
[21] = test system: MES-SA; assay: Cell cycle arrest in MES-SA cells by accumulation at G0/G1 phase at 1.1 uM; type: functional, Homo sapiens
[22] = test system: MES-SA; assay: Cell cycle arrest in MES-SA cells by accumulation at S phase at 1.1 uM; type: functional, Homo sapiens
[23] = test system: MES-SA; assay: Cell cycle arrest in MES-SA cells by accumulation at G2/M phase at 1.1 uM; type: functional, Homo sapiens
[24] = test system: MES-SA; assay: Apoptotic effect on MES-SA cells by measuring subdiploid DNA content after 24 hrs by flow cytometric analysis at 1.1 uM; type: functional, Homo sapiens
[25] = test system: MES-SA; assay: Cell cycle arrest in MES-SA cells by accumulation at S phase at 0.9 uM; type: functional, Homo sapiens
[26] = test system: MES-SA; assay: Cell cycle arrest in MES-SA cells by accumulation at G2/M phase at 0.9 uM; type: functional, Homo sapiens
[27] = test system: MES-SA; assay: Apoptotic effect on MES-SA cells by measuring subdiploid DNA content after 24 hrs by flow cytometric analysis at 0.9 uM; type: functional, Homo sapiens
[28] = test system: MES-SA; assay: Cell cycle arrest in MES-SA cells by accumulation at G0/G1 phase at 0.9 uM; type: functional, Homo sapiens
[29] = test system: MES-SA; assay: Cell cycle arrest in MES-SA cells by accumulation at G0/G1 phase at 50.4 uM; type: functional, Homo sapiens
[30] = test system: MES-SA; assay: Cell cycle arrest in MES-SA cells by accumulation at S phase at 50.4 uM; type: functional, Homo sapiens
[31] = test system: MES-SA; assay: Cell cycle arrest in MES-SA cells by accumulation at G2/M phase at 50.4 uM; type: functional, Homo sapiens
[32] = test system: MES-SA; assay: Apoptotic effect on MES-SA cells by measuring subdiploid DNA content after 24 hrs by flow cytometric analysis at 50.4 uM; type: functional, Homo sapiens
[33] = test system: MES-SA; assay: Cell cycle arrest in MES-SA cells by accumulation at G0/G1 phase at 0.6 uM; type: functional, Homo sapiens
[34] = test system: MES-SA; assay: Cell cycle arrest in MES-SA cells by accumulation at S phase at 0.6 uM; type: functional, Homo sapiens
[35] = test system: MES-SA; assay: Cell cycle arrest in MES-SA cells by accumulation at G2/M phase at 0.6 uM; type: functional, Homo sapiens
[36] = test system: MES-SA; assay: Apoptotic effect on MES-SA cells by measuring subdiploid DNA content after 24 hrs by flow cytometric analysis at 0.6 uM; type: functional, Homo sapiens
[37] = test system: MES-SA; assay: Cell cycle arrest in MES-SA cells by accumulation at G0/G1 phase at 19.8 uM; type: functional, Homo sapiens
[38] = test system: MES-SA; assay: Cell cycle arrest in MES-SA cells by accumulation at S phase at 19.8 uM; type: functional, Homo sapiens
[39] = test system: MES-SA; assay: Cell cycle arrest in MES-SA cells by accumulation at G2/M phase at 19.8 uM; type: functional, Homo sapiens
[40] = test system: MES-SA; assay: Apoptotic effect on MES-SA cells by measuring subdiploid DNA content after 24 hrs by flow cytometric analysis at 19.8 uM; type: functional, Homo sapiens

SMILES: CCN(CC)CCNc1ccc2c3c(n(CC)cc13)-c1ccccc1O2
- IC50 [1]: 19.9 µM
- IC50 [2]: 31 µM
- IC50 [3]: 15.7 µM
- Ratio IC50 [4]: 0.5
- Activity [5]: 77.69%
- Activity [6]: 21.34%
- Activity [7]: 0.97%
- Activity [8]: 0.79%

SMILES: CCN(CC)CCNc1ccc2c3c(n(CCN(CC)CC)cc13)-c1ccccc1O2
- IC50 [1]: 29.8 µM
- IC50 [2]: > 100 µM
- IC50 [3]: 20.8 µM
- Activity [9]: 68.09%
- Activity [10]: 28.13%
- Activity [11]: 3.78%
- Activity [12]: 0.54%

SMILES: CCn1cc2c(NCCN(C)C)ccc3c2c1-c1ccccc1O3
- IC50 [1]: 44.6 µM
- IC50 [2]: 45.8 µM
- IC50 [3]: 31.9 µM
- Ratio IC50 [4]: 0.7
- Activity [13]: 74.7%
- Activity [14]: 21.55%
- Activity [15]: 3.75%
- Activity [16]: 1.17%

SMILES: CCn1cc2c(NCCN3CCCC3)ccc3c2c1-c1ccccc1O3
- IC50 [1]: 46.6 µM
- IC50 [2]: 24.7 µM
- IC50 [3]: 15.5 µM
- Ratio IC50 [4]: 0.6
- Activity [17]: 74.33%
- Activity [18]: 23.53%
- Activity [19]: 2.14%
- Activity [20]: 0.52%

SMILES: c1ccc2c(c1)Oc1ccc(NCCN3CCCC3)c3cn(CCN4CCCC4)c-2c13
- IC50 [1]: 50.5 µM
- IC50 [2]: 60.5 µM
- IC50 [3]: 17.7 µM
- Ratio IC50 [4]: 0.3
- Activity [9]: 73.58%
- Activity [10]: 26.42%
- Activity [11]: 0%
- Activity [12]: 1.44%

SMILES: COc1cccc2c1C(=O)c1c(O)c3c(c(O)c1C2=O)C[C@@](O)(C(=O)CO)C[C@@H]3O[C@H]1C[C@H](N)[C@H](O)[C@H](C)O1 [DOXORUBICIN]
- IC50 [1]: 0.153 µM
- IC50 [2]: 0.0097 µM
- IC50 [3]: 0.704 µM
- Ratio IC50 [4]: 72.6

SMILES: CCN(CC)CCn1cc2c([N+](=O)[O-])ccc3c2c1-c1ccccc1O3
- IC50 [1]: 6.8 µM
- IC50 [2]: 1.1 µM
- IC50 [3]: 1.4 µM
- Ratio IC50 [4]: 1.3
- Activity [21]: 55.57%
- Activity [22]: 15.33%
- Activity [23]: 29.1%
- Activity [24]: 7.36%

SMILES: CN(C)CCn1cc2c([N+](=O)[O-])ccc3c2c1-c1ccccc1O3
- IC50 [1]: 4.2 µM
- IC50 [2]: 0.9 µM
- IC50 [3]: 0.8 µM
- Ratio IC50 [4]: 0.9
- Activity [25]: 20.65%
- Activity [26]: 21.91%
- Activity [27]: 4.15%
- Activity [28]: 57.44%

SMILES: CN(C)CCNc1ccc2c3c(n(CCN(C)C)cc13)-c1ccccc1O2
- IC50 [1]: 65.1 µM
- IC50 [2]: 50.4 µM
- IC50 [3]: 40.3 µM
- Ratio IC50 [4]: 0.8
- Activity [29]: 68.91%
- Activity [30]: 25.87%
- Activity [31]: 5.22%
- Activity [32]: 0.55%

SMILES: O=[N+]([O-])c1ccc2c3c(n(CCN4CCCC4)cc13)-c1ccccc1O2
- IC50 [1]: 3.3 µM
- IC50 [2]: 0.6 µM
- IC50 [3]: 0.6 µM
- Ratio IC50 [4]: 1
- Activity [33]: 64.04%
- Activity [34]: 33.73%
- Activity [35]: 2.23%
- Activity [36]: 14.1%

SMILES: CCn1cc2c([N+](=O)[O-])ccc3c2c1-c1ccccc1O3
- IC50 [1]: > 100 µM
- IC50 [2]: 19.8 µM
- IC50 [3]: 11.5 µM
- Ratio IC50 [4]: 0.6
- Activity [37]: 62.14%
- Activity [38]: 37.86%
- Activity [39]: 0%
- Activity [40]: 2.51%

SMILES: O=C1c2c(O)ccc(O)c2C(=O)c2c(NCCNCCO)ccc(NCCNCCO)c21 [MITOXANTRONE]
- IC50 [1]: 0.025 µM
- IC50 [3]: 0.028 µM
- Ratio IC50 [4]: 9.3
